Assay results taken from patent US9481673B2, “6-alkynyl-pyridine derivatives” (Boehringer Ingelheim International GmbH, priority 2014, dated 2016).
pIC50: −log10 of the molar value. Values after ≈ are worked out from the molar mass of the structure shown.

Experiments:
[1] = Solubility measurement (DMSO solution precipitation method); type: physicochemical; conditions: aqueous buffer, kinetic from dmso stock; (S)-isomers; McIlvaine buffer pH 6.8, 24 h shaking at ambient temperature; read-out: Sol pH 6.8
[2] = target: P450 2C19 (Homo sapiens (Human), UniProt P33261); assay: Cytochrome P450 isoenzyme inhibition assay, hydroxylation of Mephenytoin; type: in vitro ADME; conditions: (S)-isomers; human liver microsomes, 37° C.
[3] = target: P450 2C8 (Homo sapiens (Human), UniProt P10632); assay: Cytochrome P450 isoenzyme inhibition assay, deethylation of Amodiaquine; type: in vitro ADME; conditions: (S)-isomers; human liver microsomes, 37° C.
[4] = target: P450 3A4 (Homo sapiens (Human), UniProt P08684); assay: Cytochrome P450 isoenzyme inhibition assay, hydroxylation of Midazolam; type: in vitro ADME; conditions: (S)-isomers; human liver microsomes, 37° C.
[5] = target: P450 2D6 (Homo sapiens (Human), UniProt P10635); assay: Cytochrome P450 isoenzyme inhibition assay, demethylation of Dextromethorphan; type: in vitro ADME; conditions: (S)-isomers; human liver microsomes, 37° C.
[6] = target: cIAP1 BIR3 (Homo sapiens (Human), UniProt Q13490); assay: cIAP1 BIR3 binding assay (DELFIA), BIR3-SMAC peptide interaction; conditions: (S)-isomers; BIR3 domain 10 nM, SMAC peptide 10 nM; read-out: cIAP1 BIR-3 IC50
[7] = target: P450 2C9 (Homo sapiens (Human), UniProt P11712); assay: Cytochrome P450 isoenzyme inhibition assay, hydroxylation of Diclofenac; type: in vitro ADME; conditions: (S)-isomers; human liver microsomes, 37° C.

solubility kinetic at 24 h [1]: 8 µg/mL (≈ 14.1 µM)
pIC50 [2]: 5.72
pIC50 [3]: 6.05
pIC50 [4]: < 4.30
pIC50 [5]: < 4.30
pIC50 [6]: 9.00
pIC50 [7]: < 4.30
Compound: CN[C@@H](C)C(=O)Nc1ccc(-c2c(-c3ccnc(C)c3)nc3cc(C)ccn23)c(C#Cc2ccc3c(C)nccc3c2)n1 [(S)-2, (2S)-N-{5-[7-methyl-2-(2-methylpyridin-4-yl)imidazo[1,2-a]-pyridin-3-yl]-6-[2-(1-methylisoquinolin-6-yl)ethynyl]pyridin-2-yl}-2-(methylamino)-propanamide]
